The results in this text go back to US9604964B2, “Dihydropyrazole GPR40 modulators” (BRISTOL-MYERS SQUIBB COMPANY, priority 2012, dated 2017).

The target of the assay is human GPR40 (Homo sapiens, UniProt O14842). Description: FDSS-based intracellular calcium assay (Human GPR40 in vitro assay). Details: 3xFLAG; expressed in transfected cells. Format: cell-based. The note with it: intracellular Ca2+ response, cells expressing GPR40; read-out: hGPR40 EC50. As to the method: FDSS-based Intracellular Calcium Assay
Compounds are dissolved in DMSO and diluted to desired concentrations with assay buffer and added to the cells as 3× solution (20 μL per well). Run fluorescence/luminescence reader FDSS (Hamamatsu) to read intracellular Ca^2+ response.

Chain of human GPR40 (O14842 whole entry): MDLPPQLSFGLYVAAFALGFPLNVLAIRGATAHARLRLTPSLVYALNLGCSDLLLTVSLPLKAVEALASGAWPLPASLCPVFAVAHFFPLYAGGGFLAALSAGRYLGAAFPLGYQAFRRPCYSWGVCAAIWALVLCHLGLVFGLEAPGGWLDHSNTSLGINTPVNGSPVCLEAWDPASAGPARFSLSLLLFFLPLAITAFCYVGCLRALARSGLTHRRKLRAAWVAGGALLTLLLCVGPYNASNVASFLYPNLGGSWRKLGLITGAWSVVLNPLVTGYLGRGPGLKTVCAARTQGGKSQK

Regarding `COc1cncc(N2CCC(Oc3ccc(N4N=C(C(F)(F)F)[C@@H](C)[C@@H]4CC(=O)O)cc3)CC2)n1` [Example 53, 2-((4S,5S)-1-(4-((1-(6-methoxypyrazin-2-yl)piperidin-4-yl)oxy)phenyl)-4-methyl-3-(trifluoromethyl)-4,5-dihydro-1H-pyrazol-5-yl)acetic acid], the EC50 (commonly the concentration that produces a half-maximal response) amounted to 4.2 µM.
As to `C[C@@H]1C(C(F)(F)F)=NN(c2ccc(OC3CCN(c4cnc(Cl)cn4)CC3)cc2)[C@H]1CC(=O)O` [Example 55, 2-((4S,5S)-1-(4-((1-(5-chloropyrazin-2-yl)piperidin-4-yl)oxy)phenyl)-4-methyl-3-(trifluoromethyl)-4,5-dihydro-1H-pyrazol-5-yl)acetic acid], the EC50 was determined as 6.25 µM.
For `COc1ccc(F)c(N2C(=O)[C@H]3C[C@@H]2CC3Oc2ccc(N3N=C(C(F)(F)F)[C@@H](C)[C@@H]3CC(=O)O)cc2)c1` (stereo partly drawn) [Example 67, 2-((4S,5S)-1-(4-(((1R,4S)-2-(2-fluoro-5-methoxyphenyl)-3-oxo-2-azabicyclo[2.2.1]heptan-5-yl)oxy)phenyl)-4-methyl-3-(trifluoromethyl)-4,5-dihydro-1H-pyrazol-5-yl)acetic acid], the EC50 is 6.41 µM.
With `COc1ccc(F)c(N2C(=O)[C@@H]3C[C@H]2CC3Oc2ccc(N3N=C(C(F)(F)F)[C@@H](C)[C@@H]3CC(=O)O)cc2)c1` (stereo partly drawn) [Example 68, 2-((4S,5S)-1-(4-(((1S,4R)-2-(2-fluoro-5-methoxyphenyl)-3-oxo-2-azabicyclo[2.2.1]heptan-5-yl)oxy)phenyl)-4-methyl-3-(trifluoromethyl)-4,5-dihydro-1H-pyrazol-5-yl)acetic acid] the figure was 5.04 µM.
With `COc1ccc(F)c(N2C[C@H]3C[C@@H]2CC3Oc2ccc(N3N=C(C(F)(F)F)[C@@H](C)[C@@H]3CC(=O)O)cc2)c1` (stereo partly drawn) [Example 69, 2-((4S,5S)-1-(4-(((1R,4R)-2-(2-fluoro-5-methoxyphenyl)-2-azabicyclo[2.2.1]heptan-5-yl)oxy)phenyl)-4-methyl-3-(trifluoromethyl)-4,5-dihydro-1H-pyrazol-5-yl)acetic acid] the figure was 0.847 µM; with `COc1ccc(F)c(N2C[C@@H]3C[C@H]2CC3Oc2ccc(N3N=C(C(F)(F)F)[C@@H](C)[C@@H]3CC(=O)O)cc2)c1` (stereo partly drawn) [Example 70, 2-((4S,5S)-1-(4-(((1S,4S)-2-(2-fluoro-5-methoxyphenyl)-2-azabicyclo[2.2.1]heptan-5-yl)oxy)phenyl)-4-methyl-3-(trifluoromethyl)-4,5-dihydro-1H-pyrazol-5-yl)acetic acid], 1 µM.
With `CCOc1ccc(F)c(N2CCC(Oc3ccc(N4N=C(c5ccc(C#N)c(C#N)c5)[C@@H](C)[C@@H]4CC(=O)O)cc3)CC2)c1` [Example 96, 2-((4S,5S)-3-(3,4-dicyanophenyl)-1-(4-((1-(5-ethoxy-2-fluorophenyl)piperidin-4-yl)oxy)phenyl)-4-methyl-4,5-dihydro-1H-pyrazol-5-yl)acetic acid] the figure was 1.57 µM; with `CCOc1cc(F)c(F)c(N2CCC(Oc3ccc(N4N=C(c5ccc(F)c(F)c5)[C@@H](C)[C@@H]4CC(=O)O)cc3)CC2)c1` [Example 97, 2-((4S,5S)-3-(3,4-difluorophenyl)-1-(4-((1-(5-ethoxy-2,3-difluorophenyl)piperidin-4-yl)oxy)phenyl)-4-methyl-4,5-dihydro-1H-pyrazol-5-yl)acetic acid], 3.14 µM.
`COc1ccc(F)c(N2CCC(Cc3ccc(N4N=C(C(F)(F)F)[C@@H](C)[C@@H]4CC(=O)O)cc3)CC2)c1` [Example 100, 2-((4S,5S)-1-(4-((1-(2-fluoro-5-methoxyphenyl)piperidin-4-yl)methyl)phenyl)-4-methyl-3-(trifluoromethyl)-4,5-dihydro-1H-pyrazol-5-yl)acetic acid]: the EC50 was 0.266 µM.
With `COc1cc(N2CC[C@@H](Oc3ccc(N4N=C(C(F)(F)F)[C@@H](C)[C@@H]4CC(=O)O)cc3)[C@H](CO)C2)c(Cl)cn1` [Example B1, 2-((4S,5S)-1-(4-(((3S,4R)-1-(5-chloro-2-methoxypyridin-4-yl)-3-(hydroxymethyl)piperidin-4-yl)oxy)phenyl)-4-methyl-3-(trifluoromethyl)-4,5-dihydro-1H-pyrazol-5-yl)acetic acid] the figure was 2.48 µM; with `CCOc1ccc(F)c(N2CCC(Oc3ccc(N4N=C(c5ccc(C(=O)O)cc5F)[C@@H](C)[C@@H]4CC(=O)O)cc3)CC2)c1` [Example B4, 4-((4S,5S)-5-(carboxymethyl)-1-(4-((1-(5-ethoxy-2-fluorophenyl)piperidin-4-yl)oxy)phenyl)-4-methyl-4,5-dihydro-1H-pyrazol-3-yl)-3-fluorobenzoic acid], 4.95 µM.
As for `COc1cccc(N2CCC(Cc3ccc(N4N=C(C(F)(F)F)[C@@H](C)[C@@H]4CC(=O)O)cc3)CC2)c1` [Example B8, 2-((4S,5S)-1-(4-((1-(3-methoxyphenyl)piperidin-4-yl)methyl)phenyl)-4-methyl-3-(trifluoromethyl)-4,5-dihydro-1H-pyrazol-5-yl)acetic acid], the figure is 0.761 µM; as for `COc1cc(N2CCC(Cc3ccc(N4N=C(C(F)(F)F)[C@@H](C)[C@@H]4CC(=O)O)cc3)CC2)ccn1` [Example B9, 2-((4S,5S)-1-(4-((1-(2-methoxypyridin-4-yl)piperidin-4-yl)methyl)phenyl)-4-methyl-3-(trifluoromethyl)-4,5-dihydro-1H-pyrazol-5-yl)acetic acid], 2.66 µM.
With `COc1cc(N2CCC(Cc3ccc(N4N=C(C(F)(F)F)[C@@H](C)[C@@H]4CC(=O)O)cc3)CC2)c(Cl)cn1` [Example B10, 2-((4S,5S)-1-(4-((1-(5-chloro-2-methoxypyridin-4-yl)piperidin-4-yl)methyl)phenyl)-4-methyl-3-(trifluoromethyl)-4,5-dihydro-1H-pyrazol-5-yl)acetic acid] the figure was 0.517 µM.
As to `C[C@@H]1C(C(F)(F)F)=NN(c2ccc(CC3C4CCC3CN(C(=O)OCc3ccccc3)C4)cc2)[C@H]1CC(=O)O` (stereo partly drawn) [Example B11, 2-((4S,5S)-1-(4-(((1R,5S,8S)-3-((benzyloxy)carbonyl)-3-azabicyclo[3.2.1]octan-8-yl)methyl)phenyl)-4-methyl-3-(trifluoromethyl)-4,5-dihydro-1H-pyrazol-5-yl)acetic acid], the EC50 was 7.38 µM.
As for `COc1cccc(N2CC3CCC(C2)C3Cc2ccc(N3N=C(C(F)(F)F)[C@@H](C)[C@@H]3CC(=O)O)cc2)c1` (stereo partly drawn) [Example B12, 2-((4S,5S)-1-(4-(((1R,5S,8S)-3-(3-methoxyphenyl)-3-azabicyclo[3.2.1]octan-8-yl)methyl)phenyl)-4-methyl-3-(trifluoromethyl)-4,5-dihydro-1H-pyrazol-5-yl)acetic acid], the figure is 5.72 µM; as for `COc1cc(N2CC3CCC(C2)C3Cc2ccc(N3N=C(C(F)(F)F)[C@@H](C)[C@@H]3CC(=O)O)cc2)c(Cl)cn1` (stereo partly drawn) [Example B13, 2-((4S,5S)-1-(4-(((1R,5S,8S)-3-(5-chloro-2-methoxypyridin-4-yl)-3-azabicyclo[3.2.1]octan-8-yl)methyl)phenyl)-4-methyl-3-(trifluoromethyl)-4,5-dihydro-1H-pyrazol-5-yl)acetic acid], 2.2 µM; as for `C[C@@H]1C(C(F)(F)F)=NN(c2ccc(OC3CCN(c4cc5c(cc4Cl)OCO5)CC3)cc2)[C@H]1CC(=O)O` [Example B14, 2-((4S,5S)-1-(4-((1-(6-Chlorobenzo[d] [1,3]dioxol-5-yl)piperidin-4-yl)oxy)phenyl)-4-methyl-3-(trifluoromethyl)-4,5-dihydro-1H-pyrazol-5-yl)acetic acid], 0.569 µM.
For the molecule `C[C@@H]1C(C(F)(F)F)=NN(c2ccc(OC3CCN(c4cc5c(cc4Cl)OCCO5)CC3)cc2)[C@H]1CC(=O)O` [Example B15, 2-((4S,5S)-1-(4-((1-(7-Chloro-2,3-dihydrobenzo[b][1,4]dioxin-6-yl)piperidin-4-yl)oxy)phenyl)-4-methyl-3-(trifluoromethyl)-4,5-dihydro-1H-pyrazol-5-yl)acetic acid], the half-maximal effective concentration (EC50) is 0.325 µM.
As for `Cc1nc(C)c(N2CCC(Oc3ccc(N4N=C(C(F)(F)F)[C@@H](C)[C@@H]4CC(=O)O)cc3)CC2)s1` [Example B16, 2-((4S,5S)-1-(4-((1-(2,4-Dimethylthiazol-5-yl)piperidin-4-yl)oxy)phenyl)-4-methyl-3-(trifluoromethyl)-4,5-dihydro-1H-pyrazol-5-yl)acetic acid], the figure is 1.1 µM.
In the case of `C[C@@H]1C(C(F)(F)F)=NN(c2ccc(OC3CCN(c4cc(-c5ncco5)ccc4F)CC3)cc2)[C@H]1CC(=O)O` [Example B17, 2-((4S,5S)-1-(4-((1-(2-Fluoro-5-(oxazol-2-yl)phenyl)piperidin-4-yl)oxy)phenyl)-4-methyl-3-(trifluoromethyl)-4,5-dihydro-1H-pyrazol-5-yl)acetic acid], the EC50 amounted to 2.49 µM.
With `Cc1nc2ccc(N3CCC(Oc4ccc(N5N=C(C(F)(F)F)[C@@H](C)[C@@H]5CC(=O)O)cc4)CC3)cc2o1` [Example B18, 2-((4S,5S)-4-Methyl-1-(4-((1-(2-methylbenzo[d]oxazol-6-yl)piperidin-4-yl)oxy)phenyl)-3-(trifluoromethyl)-4,5-dihydro-1H-pyrazol-5-yl)acetic acid] the figure was 5.2 µM; with `C[C@@H]1C(C(F)(F)F)=NN(c2ccc(OC3CCN(c4cccc5c4OCCO5)CC3)cc2)[C@H]1CC(=O)O` [Example B19, 2-((4S,5S)-1-(4-((1-(2,3-Dihydrobenzo[b][1,4]dioxin-5-yl)piperidin-4-yl)oxy)phenyl)-4-methyl-3-(trifluoromethyl)-4,5-dihydro-1H-pyrazol-5-yl)acetic acid], 6.2 µM; with `C[C@@H]1C(C(F)(F)F)=NN(c2ccc(OC3CCN(c4cc(-n5cccn5)ccc4F)CC3)cc2)[C@H]1CC(=O)O` [Example B20, 2-((4S,5S)-1-(4-((1-(2-Fluoro-5-(1H-pyrazol-1-yl)phenyl)piperidin-4-yl)oxy)phenyl)-4-methyl-3-(trifluoromethyl)-4,5-dihydro-1H-pyrazol-5-yl)acetic acid], 4.59 µM.
With `C[C@@H]1C(C(F)(F)F)=NN(c2ccc(OC3CCN(S(=O)(=O)c4ccccc4C#N)CC3)cc2)[C@H]1CC(=O)O` [Example B21] the figure was 7.95 µM.
